Data from PubChem BioAssay AID2060358 (Molecular Pharmacology Branch, DTP, NCI, 2025).

Tested on: 254851-301-R-J1-PDC spheroids, viability % test/control
Experiment: Anticancer human tumor 254851-301-R-J1-PDC patient-derived colon carcinoma cell line growth inhibition [TAK]
Settings: spheroids with HUVEC and MSC; for IC50: curve of first compound; for viability, T/C: stronger effect = lower value
Text: Combinatorial screen of targeted agents with TAK-243 and ipatasertib in multi-cell type tumor spheroids
A high-throughput screen of multi-cell type tumor spheroids was designed to identify active combinations of targeted small molecules and TAK-243 or ipatasertib. Complex spheroids include a stromal component modeled by human endothelial cells (HUVEC) and fibroblasts modeled by human mesenchymal stem cells (MSCs). The concentration ranges selected for each drug and investigational agent were based upon clinically achievable concentrations if the clinical Cmax of the agent was known.
Compounds. The drugs and investigational agents: TAK-243 (785004), ipatasertib (767898), everolimus (733504), selumetinib (741078), bortezomib (756655), trametinib (758246), ixazomib (758254), vemurafenib (761431), dabrafenib (764134), sapanisertib (764658), alpelisib (765974), and copanlisib (816437), were obtained from the National Cancer Institute (NCI) Developmental Therapeutics Program Chemical Repository. The FDA-approved anticancer drug set is available from the NCI Developmental Therapeutics Program. […] The stock solutions were prepared in dimethyl sulfoxide (DMSO, Sigma-Aldrich, St. Louis, MO, cat. D2650) at 800-fold the tested concentration and stored at -70 degrees C prior to their use. All drugs and investigational agents were tested over a range starting from a high concentration at or near the clinical Cmax and decreasing in half-log increments. If the clinical Cmax for an agent had not been determined, the highest concentration tested was 10 microM.
NCI60 Cell Culture. NCI60 cell lines were obtained from the NCI Developmental Therapeutics Program Tumor Repository. For each lot of cells, the Repository performed Applied Biosystems AmpFLSTR Identifiler testing with PCR amplification to confirm consistency with the published Identifier STR profile for each cell line. Cells were kept in continuous culture for no more than 20 passages. The optimal seeding densities for each of the cell lines at each time point assessed were determined prior to performing the concentration response studies. Briefly, the NCI60 human tumor lines were grown as monolayers in RPMI 1640 medium supplemented with 10% FBS and 2 mmol/L L-glutamine.
An additional 2 lines were from the NCI60 cell line panel including melanomas, MALME-3M and SK-MEL-2. Pooled donor human umbilical vein endothelial cells (HUVEC, Lonza, cat. CC-2519) and human mesenchymal stem cells (hMSC, Lonza, cat. PT-2501) were purchased from Lonza (Walkersville, MD).
PDMR cell lines were grown in complete medium (DC medium): Dulbecco's modified Eagle's medium (DMEM)/F12 supplemented with 5% fetal bovine serum (FBS), 2 mM L-glutamine, 100 U/mL penicillin and 100 µg/ml streptomycin, 0.4 µg/ml hydrocortisone, 10 ng/ml epidermal growth factor (EGF) recombinant human protein, 24 µg/mL adenine, and 0.1 mg/mL primocin. During culture from frozen stock vials, PDMR cells were cultured in the same medium containing 10 µM Y-27632 (see Table 3). The PDCs were cultured in complete DMEM/F12 media without 10 microM Y-27632 dihydrochloride for at least two passages prior to the screen. The pooled donor HUVEC and hMSC were cultured in endothelial cell growth medium 2 (PromoCell, Heidelberg, Germany, cat. C-22011) and mesenchymal stem cell growth medium 2 (PromoCell, cat. C-28009), respectively. For all experiments, HUVEC and hMSC were used at passages </=5.
For the pre-screen, cell seeding densities were determined from a titration spanning the range from 5,000 to 313 cells per well. The mct-spheroids including 60% malignant cells, 25% HUVEC and 15% MSC dispensed as a mixture into U-bottom Ultra-Low Attachment 384-well plates (Corning, NY)
High-throughput Drug Combination Screening.
Prior to their inoculation into 384-well plates, malignant cells, HUVEC, and hMSC were removed from T flasks using TrypLE express (Thermo Fisher Scientific, cat. 12605036) and harvested by centrifugation for 5 min at 233 x g. […]
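Also: spheroids exposed to drugs for seven days before viability readout.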

Question: With `CC(C)n1nc(-c2ccc3oc(N)nc3c2)c2c(N)ncnc21` + CC(C)NCC(C(=O)N1CCN(c2ncnc3c2C(C)CC3O)CC1)c1ccc(Cl)cc1 as the compound, how does the IC50 (second compound 0.3 µM) read?
Answer: 41.9 nM

Question: And the IC50 (second compound 0.949 µM)?
Answer: 31.1 nM

Question: What about the IC50 (second compound 3 µM) of the same compound?
Answer: 44.4 nM

Question: And the IC50 (second compound 9.49 µM)?
Answer: 35.7 nM

Question: What about the IC50 (second compound 30 µM) of the same compound?
Answer: 24.8 nM

Question: And the viability, T/C (second compound 0.3 µM, first compound 0.000316 µM)?
Answer: 119%

Question: And the viability, T/C (second compound 0.3 µM, first compound 0.001 µM)?
Answer: 101%

Question: What about the viability, T/C (second compound 0.3 µM, first compound 0.00316 µM) of the same compound?
Answer: 93.3%

Question: What about the viability, T/C (second compound 0.3 µM, first compound 0.01 µM) of the same compound?
Answer: 78.4%

Question: What about the viability, T/C (second compound 0.3 µM, first compound 0.0316 µM) of the same compound?
Answer: 54.3%

Question: What about the viability, T/C (second compound 0.3 µM, first compound 0.1 µM) of the same compound?
Answer: 32.4%

Question: What about the viability, T/C (second compound 0.949 µM, first compound 0.000316 µM) of the same compound?
Answer: 102%

Question: And the viability, T/C (second compound 0.949 µM, first compound 0.001 µM)?
Answer: 101%

Question: And the viability, T/C (second compound 0.949 µM, first compound 0.00316 µM)?
Answer: 94.7%

Question: What about the viability, T/C (second compound 0.949 µM, first compound 0.01 µM) of the same compound?
Answer: 78.3%

Question: What about the viability, T/C (second compound 0.949 µM, first compound 0.0316 µM) of the same compound?
Answer: 49.3%

Question: What about the viability, T/C (second compound 0.949 µM, first compound 0.1 µM) of the same compound?
Answer: 33.6%

Question: What about the viability, T/C (second compound 3 µM, first compound 0.000316 µM) of the same compound?
Answer: 100%

Question: And the viability, T/C (second compound 3 µM, first compound 0.001 µM)?
Answer: 105%

Question: And the viability, T/C (second compound 3 µM, first compound 0.00316 µM)?
Answer: 85.2%

Question: And the viability, T/C (second compound 3 µM, first compound 0.01 µM)?
Answer: 72.7%

Question: And the viability, T/C (second compound 3 µM, first compound 0.0316 µM)?
Answer: 57.5%

Question: And the viability, T/C (second compound 3 µM, first compound 0.1 µM)?
Answer: 36.2%

Question: What about the viability, T/C (second compound 9.49 µM, first compound 0.000316 µM) of the same compound?
Answer: 96.6%

Question: And the viability, T/C (second compound 9.49 µM, first compound 0.001 µM)?
Answer: 109%

Question: What about the viability, T/C (second compound 9.49 µM, first compound 0.00316 µM) of the same compound?
Answer: 90.8%

Question: What about the viability, T/C (second compound 9.49 µM, first compound 0.01 µM) of the same compound?
Answer: 76.6%

Question: What about the viability, T/C (second compound 9.49 µM, first compound 0.0316 µM) of the same compound?
Answer: 53%

Question: What about the viability, T/C (second compound 9.49 µM, first compound 0.1 µM) of the same compound?
Answer: 31.9%

Question: What about the viability, T/C (second compound 30 µM, first compound 0.000316 µM) of the same compound?
Answer: 88.1%

Question: What about the viability, T/C (second compound 30 µM, first compound 0.001 µM) of the same compound?
Answer: 86.5%

Question: And the viability, T/C (second compound 30 µM, first compound 0.00316 µM)?
Answer: 84.5%

Question: What about the viability, T/C (second compound 30 µM, first compound 0.01 µM) of the same compound?
Answer: 69.6%

Question: What about the viability, T/C (second compound 30 µM, first compound 0.0316 µM) of the same compound?
Answer: 44.9%

Question: And the viability, T/C (second compound 30 µM, first compound 0.1 µM)?
Answer: 31.1%

Question: Which results are given for `Cn1cnc2c(F)c(Nc3ccc(Br)cc3Cl)c(C(=O)NOCCO)cc21` + CC(C)NCC(C(=O)N1CCN(c2ncnc3c2C(C)CC3O)CC1)c1ccc(Cl)cc1?
Answer: IC50 (second compound 0.3 µM): 1600 nM; IC50 (second compound 0.949 µM): 1610 nM; IC50 (second compound 3 µM): 1630 nM; IC50 (second compound 9.49 µM): 1540 nM; IC50 (second compound 30 µM): 1410 nM; viability, T/C (second compound 0.3 µM, first compound 0.00949 µM): 110%; viability, T/C (second compound 0.3 µM, first compound 0.03 µM): 120%; viability, T/C (second compound 0.3 µM, first compound 0.0949 µM): 110%; viability, T/C (second compound 0.3 µM, first compound 0.3 µM): 108%; viability, T/C (second compound 0.3 µM, first compound 0.949 µM): 77.5%; viability, T/C (second compound 0.3 µM, first compound 3 µM): 16.6%; viability, T/C (second compound 0.949 µM, first compound 0.00949 µM): 111%; viability, T/C (second compound 0.949 µM, first compound 0.03 µM): 108%; viability, T/C (second compound 0.949 µM, first compound 0.0949 µM): 118%; viability, T/C (second compound 0.949 µM, first compound 0.3 µM): 88.7%; viability, T/C (second compound 0.949 µM, first compound 0.949 µM): 78.9%; viability, T/C (second compound 0.949 µM, first compound 3 µM): 19.6%; viability, T/C (second compound 3 µM, first compound 0.00949 µM): 101%; viability, T/C (second compound 3 µM, first compound 0.03 µM): 118%; viability, T/C (second compound 3 µM, first compound 0.0949 µM): 115%; viability, T/C (second compound 3 µM, first compound 0.3 µM): 105%; viability, T/C (second compound 3 µM, first compound 0.949 µM): 79.1%; viability, T/C (second compound 3 µM, first compound 3 µM): 17.6%; viability, T/C (second compound 9.49 µM, first compound 0.00949 µM): 103%; viability, T/C (second compound 9.49 µM, first compound 0.03 µM): 114%; viability, T/C (second compound 9.49 µM, first compound 0.0949 µM): 112%; viability, T/C (second compound 9.49 µM, first compound 0.3 µM): 102%; viability, T/C (second compound 9.49 µM, first compound 0.949 µM): 75.2%; viability, T/C (second compound 9.49 µM, first compound 3 µM): 15.3%; viability, T/C (second compound 30 µM, first compound 0.00949 µM): 84.6%; viability, T/C (second compound 30 µM, first compound 0.03 µM): 92.4%; viability, T/C (second compound 30 µM, first compound 0.0949 µM): 105%; viability, T/C (second compound 30 µM, first compound 0.3 µM): 83.9%; viability, T/C (second compound 30 µM, first compound 0.949 µM): 72.4%; viability, T/C (second compound 30 µM, first compound 3 µM): 8.88%
